Measurements published in US7314885B2, “Pyrrole compounds useful as kinase inhibitors” (Vertex Pharmaceuticals Incorporated, priority 2003, dated 2008).

Biological target: c-Met (Homo sapiens, UniProt P08581)
Assay: Ki determination for the inhibition of c-Met (coupled enzyme system)
Type: biochemical
Settings: coupled enzyme assay; 200 μM ATP, 10 μM polyGluTyr, 80 nM c-Met, 30° C.
Experimental: Ki Determination for the Inhibition of c-Met
Compounds were screened for their ability to inhibit c-Met kinase activity using a standard coupled enzyme system (Fox et al., Protein Sci. 1998, 7, 2249). Reactions were carried out in a solution containing 100 mM HEPES (pH 7.5), 10 mM MgCl2, 25 mM NaCl, 300 μM NADH, 1 mM DTT, and 1.5% DMSO. Final substrate concentrations in the assay were 200 μM ATP (Sigma Chemicals, St Louis, Mo.) and 10 μM polyGluTyr (Sigma Chemical Company, St. Louis). Reactions were carried out at 30° C. and 80 nM c-Met. Final concentrations of the components of the coupled enzyme system were 2.5 mM phosphoenolpyruvate, 300 μM NADH, 30 μg/ml pyruvate kinase and 10 μg/ml lactate dehydrogenase.
An assay stock buffer solution was prepared containing all of the reagents listed above with the exception of ATP and a test compound of the present invention. The assay stock buffer solution (175 μl) was incubated in a 96 well plate with 5 μl of the test compound of the present invention at final concentrations spanning 0.006 μM to 12.5 μM at 30° C. for 10 minutes. Typically, a 12-point titration was conducted by preparing serial dilutions (from 10 mM compound stocks) with DMSO of the test compounds of the present invention in daughter plates. The reaction was initiated by the addition of 20 μl of ATP (final concentration 200 μM). Rates of reaction were obtained using a Molecular Devices Spectramax plate reader (Sunnyvale, Calif.) over 10 minutes at 30° C. The Ki values were determined from the rate data as a function of inhibitor concentration.

Sequence of c-Met (P08581 25-1390): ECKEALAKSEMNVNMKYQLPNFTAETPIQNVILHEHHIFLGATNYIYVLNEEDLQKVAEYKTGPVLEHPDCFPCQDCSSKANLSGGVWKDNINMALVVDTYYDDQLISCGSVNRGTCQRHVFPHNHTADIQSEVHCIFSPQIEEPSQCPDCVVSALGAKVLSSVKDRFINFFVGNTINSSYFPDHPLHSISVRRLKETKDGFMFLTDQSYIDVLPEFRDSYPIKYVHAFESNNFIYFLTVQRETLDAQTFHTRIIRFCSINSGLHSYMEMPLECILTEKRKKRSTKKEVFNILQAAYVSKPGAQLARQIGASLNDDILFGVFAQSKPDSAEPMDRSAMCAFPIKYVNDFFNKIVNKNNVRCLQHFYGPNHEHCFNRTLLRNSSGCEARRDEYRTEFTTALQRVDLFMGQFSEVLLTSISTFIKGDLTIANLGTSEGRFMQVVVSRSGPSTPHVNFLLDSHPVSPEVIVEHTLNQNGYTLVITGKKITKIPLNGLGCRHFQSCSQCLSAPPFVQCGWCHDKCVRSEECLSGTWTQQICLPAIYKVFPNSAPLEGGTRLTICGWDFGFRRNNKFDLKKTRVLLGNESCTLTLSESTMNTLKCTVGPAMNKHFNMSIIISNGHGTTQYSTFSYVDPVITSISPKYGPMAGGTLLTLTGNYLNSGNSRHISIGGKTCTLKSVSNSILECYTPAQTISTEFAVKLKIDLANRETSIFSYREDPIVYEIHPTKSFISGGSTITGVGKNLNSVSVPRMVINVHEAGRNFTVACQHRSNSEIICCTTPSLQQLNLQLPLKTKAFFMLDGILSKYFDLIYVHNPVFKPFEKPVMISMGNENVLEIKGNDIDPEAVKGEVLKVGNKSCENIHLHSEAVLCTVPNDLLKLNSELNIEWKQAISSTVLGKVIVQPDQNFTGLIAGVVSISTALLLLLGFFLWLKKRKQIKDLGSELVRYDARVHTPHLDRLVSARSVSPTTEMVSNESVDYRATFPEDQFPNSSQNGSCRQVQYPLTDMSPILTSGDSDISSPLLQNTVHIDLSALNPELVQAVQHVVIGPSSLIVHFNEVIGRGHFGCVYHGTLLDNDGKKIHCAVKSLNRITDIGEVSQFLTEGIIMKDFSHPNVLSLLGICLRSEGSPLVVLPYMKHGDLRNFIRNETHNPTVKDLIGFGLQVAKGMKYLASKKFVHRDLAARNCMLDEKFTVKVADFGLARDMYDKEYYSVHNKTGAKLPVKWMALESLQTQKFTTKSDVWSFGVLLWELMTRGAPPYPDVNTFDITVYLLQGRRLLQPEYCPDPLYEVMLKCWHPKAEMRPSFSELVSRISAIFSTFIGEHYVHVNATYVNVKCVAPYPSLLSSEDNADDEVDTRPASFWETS

SMILES	Ki [µM]
O=C(NC[C@@H]1CCCO1)c1cc(-c2nnnn2-c2cccc(F)c2F)c[nH]1 (stereo in doubt) [Compound I-24, 4-[1-(2,3-Difluoro-phenyl)-1H-tetrazol-5-yl]-1H-pyrrole-2-carboxylic acid (tetrahydro-furan-2-ylmethyl)-amide]	1 to 10
O=C(NCCCn1ccnc1)c1cc(-c2nncn2-c2cccc(Cl)c2Cl)c[nH]1 [Compound I-41]	1 to 10
O=C(NCCCn1ccnc1)c1cc(-n2cnnc2-c2cccc(F)c2F)c[nH]1 [Compound I-44, N-(3-(1H-imidazol-1-yl)propyl)-4-(3-(2,3-difluorophenyl)-4H-1,2,4-triazol-4-yl)-1H-pyrrole-2-carboxamide]	> 10
O=C(c1cc(-c2[nH]nnc2-c2cccc(F)c2F)c[nH]1)N1CCCC1 [Compound I-47]	1 to 10
O=C(c1cc(-c2nncn2-c2cccc(Cl)c2Cl)c[nH]1)N1CC=CC1 [Compound I-40]	1 to 10
O=C(NC[C@@H]1CCCO1)c1cc(-c2nncn2-c2cccc(Cl)c2Cl)c[nH]1 [Compound I-39]	1 to 10
O=C(NC[C@@H]1CCCO1)c1cc(-n2cncc2-c2cccc(F)c2F)c[nH]1 [Compound I-10, 4-[5-(2,3-Difluoro-phenyl)-imidazol-1-yl]-1H-pyrrole-2-carboxylic acid (S-tetrahydro-furan-2-ylmethyl)-amide]	1 to 10
O=C(NC[C@@H]1CCCO1)c1cc(-c2cnoc2-c2cccc(F)c2F)c[nH]1 [Compound I-4, 4-[5-(2,3-Difluoro-phenyl)-isoxazol-4-yl]-1H-pyrrole-2-carboxylic acid (S-tetrahydro-furan-2-ylmethyl)-amide]	1 to 10
O=C(c1cc(-n2nnnc2-c2cccc(F)c2F)c[nH]1)N1CC=CC1 [Compound I-38, (4-(5-(2,3-difluorophenyl)-1H-tetrazol-1-yl)-1H-pyrrol-2-yl)(2H-pyrrol-1(5H)-yl)methanone]	1 to 10
O=C(NC[C@@H]1CCCO1)c1cc(-c2cncn2-c2cccc(F)c2F)c[nH]1 (stereo in doubt) [Compound I-16, 4-[3-(2,3-Difluoro-phenyl)-3H-imidazol-4-yl]-1H-pyrrole-2-carboxylic acid (tetrahydro-furan-2-ylmethyl)-amide]	1 to 10
O=C(NC[C@@H]1CCCO1)c1cc(-c2sncc2-c2cccc(F)c2F)c[nH]1 [Compound I-46, 4-(4-(2,3-difluorophenyl)isothiazol-5-yl)-N-(((S)-tetrahydrofuran-2-yl)methyl)-1H-pyrrrole-2-carboxamide]	1 to 10
O=C(c1cc(-c2nncn2-c2cccc(F)c2F)c[nH]1)N1CC=CC1 [Compound I-37, (4-(4-(2,3-difluorophenyl)-4H-1,2,4-triazol-3-yl)-1H-pyrrol-2-yl)(2H-pyrrol-1(5H)-yl)methanone]	> 10
